# Columns and labels:
# Test in all cases: MIC of test compound alone or with β-lactamase inhibitor at 4 μg/mL
# Assay type in all cases: cell-based
# [1] = test system: Klebsiella pneumoniae Y-1133 strain producing NDM-1, OXA-48, and CTX-M-15 (strain C); conditions: Klebsiella pneumoniae
# Summary of the method: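 Broth microdilution MIC against K. pneumoniae Y-1133 (NDM-1, OXA-48, CTX-M-15), test compound alone or combined with a β-lactamase inhibitor at 4 μg/mL.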
# [2] = test system: Escherichia coli TK-3113 strain producing IMP-8 (strain D); conditions: Escherichia coli
# Summary of the method: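 Broth microdilution MIC of the test compound, run alone and with a β-lactamase inhibitor fixed at 4 μg/mL. Strains were IMP-8-producing E. coli TK-3113 and other β-lactamase producers, including K. pneumoniae Y-1069 carrying OXA-48 and CTX-M-15.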
# [3] = test system: Klebsiella pneumoniae Y-1020 strain producing KPC-3 and SHV-12 (strain B); conditions: for MIC: Klebsiella pneumoniae, Strain B
# Summary of the method: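 Broth microdilution MIC of test compound tested alone or combined with a β-lactamase inhibitor fixed at 4 μg/mL, against the KPC-3/SHV-12-producing strain.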
# [4] = test system: Escherichia coli TK-1747 strain producing CTX-M-15 (strain A); conditions: Escherichia coli
# Experimental: (§1) By using a broth microdilution method, the combinational effect of a test compound and a β-lactamase inhibitor was evaluated.
# (§2) The evaluation test for antibacterial activity was performed in the same manner as in Test Example 1.
# Escherichia coli TK-1747 strain producing CTX-M-15 (hereinafter, called strain A),
# [5] = test system: Escherichia coli TK-1765 strain producing CMY-2 (strain E); conditions: Escherichia coli
# Experimental: as §1, §2
# Escherichia coli TK-1765 strain producing CMY-2 (hereinafter, called strain E)
# [6] = test compound alone (β-lactamase inhibitor N/A)
compound,measurement,setting,value
"CC(C)(O/N=C(\C(=O)NC1C(=O)N2C[C@@](C(=O)O)(N3CCN(NC(=O)C(=O)c4ccc(O)c(O)c4Cl)C(=O)C3=O)S[C@H]12)c1csc(N)n1)C(=O)O (stereo partly drawn) [Example 126, (3R,5R,6R)-6-((Z)-2-(2-aminothiazol-4-yl)-2-(((2-carboxypropan-2-yl)oxy)imino)aceta-mido)-3-(4-(2-(2-chloro-3,4-dihydroxy-phenyl)-2-oxoaceta-mido)-2,3-dioxopipera-zin-1-yl)-7-oxo-4-thia-1-azabicyclo[3.2.0]-heptane-3-carboxylic acid]",MIC,[1]; AVI added at 4 μg/mL,0.5 µg/mL
same,MIC,[1]; NAC added at 4 μg/mL,0.03 µg/mL
same,MIC,[1]; ZID added at 4 μg/mL,< 0.015 µg/mL
same,MIC,[1]; [6],1 µg/mL
same,MIC,[2]; NAC added at 4 μg/mL,0.03 µg/mL
same,MIC,[2]; VAB added at 4 μg/mL,2 µg/mL
same,MIC,[2]; ZID added at 4 μg/mL,0.03 µg/mL
same,MIC,[2]; [6],4 µg/mL
same,MIC,[3]; AVI added at 4 μg/mL,1 µg/mL
same,MIC,[3]; NAC added at 4 μg/mL,0.12 µg/mL
same,MIC,[3]; ZID added at 4 μg/mL,0.03 µg/mL
same,MIC,[3]; [6],4 µg/mL
same,antibacterial activity in combination with a β-lactamase inhibitor versus without,"[3]; for all the bacterial strains (strains A to E), summary of Tables 43 to 47",higher antibacterial activity
same,MIC,[4]; AVI added at 4 μg/mL,0.03 µg/mL
same,MIC,[4]; CVA added at 4 μg/mL,0.03 µg/mL
same,MIC,[4]; NAC added at 4 μg/mL,0.03 µg/mL
same,MIC,[4]; SBT added at 4 μg/mL,0.06 µg/mL
same,MIC,[4]; TAZ added at 4 μg/mL,0.06 µg/mL
same,MIC,[4]; ZID added at 4 μg/mL,< 0.015 µg/mL
same,MIC,[4]; [6],0.12 µg/mL
same,MIC,[5]; [6],2 µg/mL
same,MIC,[5]; with AVI at 4 μg/mL,0.25 µg/mL
same,MIC,[5]; with TAZ at 4 μg/mL,1 µg/mL
same,MIC,[5]; with VAB at 4 μg/mL,0.5 µg/mL
